The text below walks through data of article PMC6071089 (Nanomaterials, 2018).

This assay concerns C2C12 cells. As to the kind of experiment: Inhibition of CCPs- and caveolae-mediated endocytosis of CK2.3-Qdots. Format: cell-based, murine. Conditions: then 100 nM CK2.3-Qdots 18 h, confocal.

Procedure: C2C12 cells were grown in 35 mm dishes containing 18 mm × 18 mm square coverslips at a cell density of 1 × 10^4 cells/well for two days in DMEM media containing 20% FBS and 1% penicillin/streptomycin and at the end of the 2nd day, cells were serum starved with phenol-free DMEM media supplemented with 1% penicillin/streptomycin, but without FBS for 18 h. Next, we used chlorpromazine from Cayman chemical (Ann Arbor, MI, USA) to inhibit CCPs-mediated endocytosis. […] C2C12 cells were treated with 5 μm of Chlorpromazine in DMEM media supplemented with 10% FBS and 1% penicillin/streptomycin for 24 h [41]. […] C2C12 cells were treated with 50 μm of Lovastatin in phenol-free DMEM without FBS and supplemented only with 1% penicillin/streptomycin for 24 h [41, 42]. […] C2C12 cells were treated with 100 μm of methyl-β-cyclodextrin in phenol-free DMEM without FBS and supplemented only with 1% penicillin/streptomycin for 24 h [43]. […] After 18 h, cells were fixed using 4.4% (w/v) paraformaldehyde purchased from Sigma-Aldrich (St. Louis, MO, USA) for 20 min and permeabilized with 0.05% (w/v) saponin from Sigma-Aldrich (St. Louis, MO, USA) diluted in diH2O, for 10 min on ice. Later the nucleus was stained using 100 μL (0.5 ng/mL) of Hoechst (catalog # 23491-45-4) from Sigma-Aldrich (St. Louis, MO, USA). The coverslips were then mounted on the slides using Airvol [38]. Slides were imaged using Zeiss LSM 710 at 63×/1.4 Plan-Apochromat oil objective.
To inhibit both endocytic pathways we used methyl-β-cyclodextrin (MβCD) [60]. […] C2C12 cells were either left unstimulated or stimulated with the pharmacological inhibitors for 24 h. […] Cells were fixed, and images were collected using a confocal microscope (Figure 11).

For `CN(C)CCCN1c2ccccc2Sc2ccc(Cl)cc21` [chlorpromazine, Chlorpromazine], the “effect of inhibitor on uptake of CK2.3-Qdots” value (“effect of inhibitor” below) (chlorpromazine 5 μm, 24 h pre-treatment (CCP inhibitor)) is reported as “did not affect the uptake”.
`CC[C@H](C)C(=O)O[C@H]1C[C@@H](C)C=C2C=C[C@H](C)[C@H](CC[C@@H]3C[C@@H](O)CC(=O)O3)[C@H]21` [lovastatin, Lovastatin]: the “effect of inhibitor” value (lovastatin 50 μm, 24 h pre-treatment (caveolae inhibitor)) is “prevented CK2.3-Qdot®s from entering C2C12 cells”.
On to Methyl-β-cyclodextrin [MβCD], for which the “effect of inhibitor” value (methyl-β-cyclodextrin 100 μm, 24 h pre-treatment (CCP and caveolae inhibitor)) is listed as “prevented CK2.3-Qdot®s from entering C2C12 cells”.
